pIC50: −log10 of the molar value.
Legend:
[1] = target: Serine/threonine-protein kinase B-raf (Homo sapiens, UniProt P15056); assay: Inhibition of B-Raf
[2] = test system: A-375; assay: Antiproliferative activity against human A375 cells expressing b-Raf V600E mutant; format: functional, cell-based
[3] = Antiproliferative activity against human WM266.4 cells expressing b-Raf V600E mutant; format: functional, cell-based; settings: WM 266-4
[4] = Therapeutic index, ratio of IC50 for human Caco-2 cells expressing wild type b-Raf to IC50 for human A375 cells expressing b-Raf V600E mutant; format: cell-based; settings: read-out: Ratio IC50
[5] = Therapeutic index, ratio of IC50 for human Caco-2 cells expressing wild type b-Raf to IC50 for human WM266.4 cells expressing b-Raf V600E mutant; format: cell-based; settings: read-out: Ratio IC50
[6] = Selectivity for B-raf over p38alpha
[7] = test system: Caco-2; assay: Antiproliferative activity against human Caco-2 cells expressing wild type b-Raf; format: functional, cell-based

Sequence of Serine/threonine-protein kinase B-raf (P15056 whole entry): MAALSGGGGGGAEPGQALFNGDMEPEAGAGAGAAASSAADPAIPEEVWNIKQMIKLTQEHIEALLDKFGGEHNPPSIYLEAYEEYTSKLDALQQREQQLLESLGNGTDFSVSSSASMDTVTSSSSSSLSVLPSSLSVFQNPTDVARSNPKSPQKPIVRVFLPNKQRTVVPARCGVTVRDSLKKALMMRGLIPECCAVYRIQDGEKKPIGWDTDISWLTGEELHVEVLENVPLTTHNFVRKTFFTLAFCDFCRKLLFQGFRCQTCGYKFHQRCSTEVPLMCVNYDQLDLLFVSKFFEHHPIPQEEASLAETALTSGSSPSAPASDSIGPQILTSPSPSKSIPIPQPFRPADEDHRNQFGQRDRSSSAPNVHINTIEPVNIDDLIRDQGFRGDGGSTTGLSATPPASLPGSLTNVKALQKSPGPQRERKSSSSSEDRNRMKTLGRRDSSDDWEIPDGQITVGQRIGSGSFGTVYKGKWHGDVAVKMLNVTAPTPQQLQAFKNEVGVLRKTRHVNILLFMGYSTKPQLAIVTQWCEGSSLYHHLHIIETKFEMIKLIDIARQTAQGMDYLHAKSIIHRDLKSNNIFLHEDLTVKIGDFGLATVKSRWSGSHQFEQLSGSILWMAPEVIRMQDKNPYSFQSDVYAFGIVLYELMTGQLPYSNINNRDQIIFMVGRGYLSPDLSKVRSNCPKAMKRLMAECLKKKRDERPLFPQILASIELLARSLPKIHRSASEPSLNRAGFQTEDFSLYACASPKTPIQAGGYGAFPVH

| SMILES | pIC50 [1] | pIC50 [2] | pIC50 [3] | other results |
| --- | --- | --- | --- | --- |
| CCOC(=O)N1C2CCC1CC(c1ccnc3c(-c4ccc5c(c4)NC(=O)C5)c(-c4ccncc4)nn13)C2 (stereo unspecified) | < 6.00 | – | – | – |
| CS(=O)(=O)C1C2CCC1CC(c1ccnc3c(-c4ccc(Cl)c(O)c4)c(-c4ccncc4)nn13)C2 (stereo unspecified) | > 8.70 | 6.57 | 7.05 | – |
| CN(C)C(=O)N1C2CCC1CC(c1ccnc3c(-c4cccc5[nH]ncc45)c(-c4ccncc4)nn13)C2 (stereo unspecified) | – | 5.52 | 5.67 | – |
| CCOC(=O)N1C2CCC1CC(c1ccnc3c(-c4ccc(Cl)c(O)c4)c(-c4ccncc4)nn13)C2 (stereo unspecified) | > 8.70 | – | 6.92 | – |
| CCN1C2CCC1CC(c1ccnc3c(-c4cccc5[nH]ncc45)c(-c4ccncc4)nn13)C2 (stereo unspecified) | 7.33 | 5.54 | 5.62 | – |
| CCN1C2CCC1CC(c1ccnc3c(-c4ccc(C)c5[nH]ncc45)c(-c4ccncc4)nn13)C2 (stereo unspecified) | – | 5.80 | 6.08 | – |
| CCN1C2CCC1CC(c1ccnc3c(-c4ccc(C#N)c(O)c4)c(-c4ccncc4)nn13)C2 (stereo unspecified) | – | < 5.00 | < 5.00 | – |
| CCOC(=O)N1C2CCC1CC(c1ccnc3c(-c4cccc(O)c4)c(-c4ccncc4)nn13)C2 (stereo unspecified) | – | – | 6.62 | – |
| Oc1cccc(-c2c(-c3ccncc3)nn3c(C4CC5CCC(C4)N5)ccnc23)c1 (stereo unspecified) | – | 5.65 | 6.66 | – |
| CCOC(=O)N1C2CCC1CC(c1ccnc3c(-c4cccc(OC)c4)c(-c4ccncc4)nn13)C2 (stereo unspecified) | – | 5.05 | 5.10 | – |
| CC(=O)N1C2CCC1CC(c1ccnc3c(-c4ccc(Cl)c(O)c4)c(-c4ccncc4)nn13)C2 (stereo unspecified) | – | 6.05 | 6.59 | – |
| CC(C)N1C2CCC1CC(c1ccnc3c(-c4cccc5[nH]ncc45)c(-c4ccncc4)nn13)C2 (stereo unspecified) | – | 5.71 | 5.76 | – |
| CN1C2CC(CO)C1Cc1cnc3c(-c4ccc(Cl)c(O)c4)c(-c4ccncc4)nn3c12 (stereo unspecified) | 9.22 | 5.77 | 6.12 | – |
| CS(=O)(=O)N1C2CCC1CC(c1ccnc3c(-c4cccc5[nH]ncc45)c(-c4ccncc4)nn13)C2 (stereo unspecified) | – | 6.02 | 6.24 | – |
| CCOC(=O)N1C2CCC1CC(c1ccnc3c(-c4ccc(C)c5[nH]ncc45)c(-c4ccncc4)nn13)C2 (stereo unspecified) | – | 6.00 | 6.17 | – |
| CCOC(=O)N1C2CCC1CC(c1ccnc3c(-c4ccc(C(F)(F)F)c5[nH]ncc45)c(-c4ccncc4)nn13)C2 (stereo unspecified) | 8.36 | 5.60 | 5.64 | – |
| CCNC(=O)N1C2CCC1CC(c1ccnc3c(-c4cccc5[nH]ncc45)c(-c4ccncc4)nn13)C2 (stereo unspecified) | – | 5.55 | 5.82 | – |
| CCN1C2CCC1CC(c1ccnc3c(-c4ccc(C(F)(F)F)c5[nH]ncc45)c(-c4ccncc4)nn13)C2 (stereo unspecified) | 7.35 | 5.77 | 5.54 | – |
| CCOC(=O)N1C2CCC1CC(c1ccnc3c(-c4ccc(-c5nnco5)cc4)c(-c4ccncc4)nn13)C2 (stereo unspecified) | 6.82 | – | – | – |
| CCOC(=O)N1C2CCC1CC(c1ccnc3c(-c4ccc(C)c(O)c4)c(-c4ccncc4)nn13)C2 (stereo unspecified) | – | 6.24 | 6.64 | – |
| CCOC(=O)N1C2CCC1CC(c1ccnc3c(-c4cccc5[nH]ccc45)c(-c4ccncc4)nn13)C2 (stereo unspecified) | < 6.00 | – | – | – |

| SMILES | pIC50 [1] | pIC50 [2] | pIC50 [3] | other results |
| --- | --- | --- | --- | --- |
| CCN1C2CCC1CC(c1ccnc3c(-c4ccc(Cl)c(O)c4)c(-c4ccncc4)nn13)C2 (stereo unspecified) | 9.30 | 6.49 | 6.64 | – |
| CCN1C2CCC1CC(c1ccnc3c(-c4ccc(Cl)c(OC)c4)c(-c4ccncc4)nn13)C2 (stereo unspecified) | – | 5.66 | 5.25 | – |
| CCOC(=O)N1C2CCC1CC(c1ccnc3c(-c4ccc(F)c(F)c4)c(-c4ccncc4)nn13)C2 (stereo unspecified) | 6.52 | – | – | – |
| CCOC(=O)N1C2CCC1CC(c1ccnc3c(-c4cccc5[nH]c(=O)[nH]c45)c(-c4ccncc4)nn13)C2 (stereo unspecified) | < 6.00 | – | – | – |
| COc1cccc(-c2c(-c3ccncc3)nn3c(C4CC5CCC(C4)N5)ccnc23)c1 (stereo unspecified) | – | 5.19 | 5.08 | – |
| O=C(O)[C@H]1CCCN1C(=O)N1C2CCC1CC(c1ccnc3c(-c4cccc5[nH]ncc45)c(-c4ccncc4)nn13)C2 (stereo partly specified) | 8.68 | 5.23 | 5.73 | – |
| CCN1C2CCC1CC(c1ccnc3c(-c4ccc(Cl)c5[nH]ncc45)c(-c4ccncc4)nn13)C2 (stereo unspecified) | 8.36 | 5.96 | 6.07 | – |
| CCOC(=O)N1C2CCC1CC(c1ccnc3c(-c4ccc5cc[nH]c5c4)c(-c4ccncc4)nn13)C2 (stereo unspecified) | – | 5.12 | < 5.00 | – |
| CCOC(=O)N1C2CCC1CC(c1ccnc3c(-c4ccc(F)c5[nH]ncc45)c(-c4ccncc4)nn13)C2 (stereo unspecified) | – | 6.21 | 6.52 | selectivity ratio [4]: 5.8; selectivity ratio [5]: 12; Ratio [6]: 19 |
| Oc1cc(-c2c(-c3ccncc3)nn3c(C4CC5CCC(C4)N5)ccnc23)ccc1Cl (stereo unspecified) | – | 6.36 | 7.05 | – |
| OCCN1C2CCC1CC(c1ccnc3c(-c4cccc5[nH]ncc45)c(-c4ccncc4)nn13)C2 (stereo unspecified) | – | 5.46 | 5.86 | – |
| COc1cc(-c2c(-c3ccncc3)nn3c(C4CC5CCC(C4)N5)ccnc23)ccc1Cl (stereo unspecified) | 8.07 | 5.59 | 5.46 | – |
| CCOC(=O)N1C2CCC1CC(c1ccnc3c(-c4ccc(Cl)c(OC)c4)c(-c4ccncc4)nn13)C2 (stereo unspecified) | – | – | < 5.00 | – |
| CCOC(=O)N1C2CCC1CC(c1ccnc3c(-c4ccc(Cl)c5[nH]ncc45)c(-c4ccncc4)nn13)C2 (stereo unspecified) | 9.40 | 6.24 | 6.55 | selectivity ratio [4]: 9.4; selectivity ratio [5]: 19.3 |
| CCOC(=O)N1C2CCC1CC(c1ccnc3c(-c4cccc5[nH]ncc45)c(-c4ccncc4)nn13)C2 (stereo unspecified) | – | 6.42 | 6.52 | selectivity ratio [4]: 2.1; selectivity ratio [5]: 2.7; pIC50 [7]: 6.10 |
| CC(=O)N1C2CCC1CC(c1ccnc3c(-c4cccc5[nH]ncc45)c(-c4ccncc4)nn13)C2 (stereo unspecified) | – | 5.60 | 5.74 | – |
| CCN1C2CCC1CC(c1ccnc3c(-c4ccc(F)c(O)c4)c(-c4ccncc4)nn13)C2 (stereo unspecified) | – | 6.12 | 6.35 | – |
| CCOC(=O)N1C2CCC1CC(c1c(C)cnc3c(-c4cccc5[nH]ncc45)c(-c4ccncc4)nn13)C2 (stereo unspecified) | 8.08 | 5.91 | 5.73 | – |
| COC(=O)C1CC2c3c(cnc4c(-c5ccc(Cl)c(O)c5)c(-c5ccncc5)nn34)CC1N2C (stereo unspecified) | 8.80 | 5.64 | 5.96 | – |
| CN1C2CC(S(=O)(=O)c3ccccc3)C1Cc1cnc3c(-c4ccc(Cl)c(O)c4)c(-c4ccncc4)nn3c12 (stereo unspecified) | 9.10 | 6.00 | 6.22 | – |
